# Measurements taken from patent US20250026766A1, “Thiazolopyridyl Amide Derivatives as DNA Polymerase Theta Inhibitors” (BeiGene, Ltd., priority 2022, published 2025).
# Target: Pol Theta (1-894) (Homo sapiens (Human), UniProt O75417)
# Assay: Biochemical Pol Theta (1-894) ATPase IC50 assay (ADP-Glo, ssDNA substrate)
# Conditions: ADP-Glo assay with ssDNA substrate, room temperature
# Procedure: Baculovirus Expression of Human POL theta (1-894)
# Human POL Theta (1-894)-His-pFastBac1 baculovirus samples were generated using the Bac-to-Bac baculovirus expression system (Invitrogen) according to the manufacturer's protocol. […] Baculovirus amplification was achieved using infected SF9 cells at 1:2000 virus/cells ratios, and grown for 96 hours at 27° C. post-transfection. The expression scaled up for each protein was carried out in the flask 3 L from CORNING. 4 L of 3×10^6 cells/mL Sf9 cells (Expression System, Invitrogen) grown in SF900TM II SFM insect medium (Expression System) were infected with virus stock at 1:200 virus/cell ratios, and grown for 48 hours at 27° C. post-transfection. The infected cell culture was harvested by centrifugation at 6000 rpm for 15 min 4° C. in a SORVALL LYNX6000 centrifuge. The cell pellets were stored at −80° C.
# The human POL Theta (1-894)-His produced as described above, were purified from Sf9 baculovirus-infected insect cell paste. The cells were lysed using sonication method, and the lysates were clarified by centrifugation.
# Enzymatic reactions of Pol Theta (1-894) were performed using ADP-Glo assay with ssDNA substrate. Pol Theta (1-894) was expressed in baculovirus expression system. The inhibition activities testing for the compound disclosed herein were carried out at room temperature in assay buffer containing 40 mM Tris pH 7.5, 20 mM MgCl2, 1 mM DTT, 0.01% BSA and 0.05% Tween-20. Compounds in DMSO were dispensed into wells of a black 384 well plate (Corning 4514) using D300e digital dispenser (Tecan). The ranges of compounds final concentration were 2.62 nM˜10000 nM. 3 μL 2× enzyme solution containing 12.5 nM enzyme was added to wells. […] After 1 hour reaction, 5 μL ADP-Glo reagent (Promga V9102) was added and incubated for 40 minutes. 10 μL Kinase Detection reagent was added and incubated for 40 minutes. Luminescence was measured on a microplate reader (PHERAstar FSX, BMG labtech). The IC50 values were calculated based on inhibition of enzyme activity in the presence of increasing concentrations of compounds.
# Pol Theta (1-894), sequence (O75417 1-894): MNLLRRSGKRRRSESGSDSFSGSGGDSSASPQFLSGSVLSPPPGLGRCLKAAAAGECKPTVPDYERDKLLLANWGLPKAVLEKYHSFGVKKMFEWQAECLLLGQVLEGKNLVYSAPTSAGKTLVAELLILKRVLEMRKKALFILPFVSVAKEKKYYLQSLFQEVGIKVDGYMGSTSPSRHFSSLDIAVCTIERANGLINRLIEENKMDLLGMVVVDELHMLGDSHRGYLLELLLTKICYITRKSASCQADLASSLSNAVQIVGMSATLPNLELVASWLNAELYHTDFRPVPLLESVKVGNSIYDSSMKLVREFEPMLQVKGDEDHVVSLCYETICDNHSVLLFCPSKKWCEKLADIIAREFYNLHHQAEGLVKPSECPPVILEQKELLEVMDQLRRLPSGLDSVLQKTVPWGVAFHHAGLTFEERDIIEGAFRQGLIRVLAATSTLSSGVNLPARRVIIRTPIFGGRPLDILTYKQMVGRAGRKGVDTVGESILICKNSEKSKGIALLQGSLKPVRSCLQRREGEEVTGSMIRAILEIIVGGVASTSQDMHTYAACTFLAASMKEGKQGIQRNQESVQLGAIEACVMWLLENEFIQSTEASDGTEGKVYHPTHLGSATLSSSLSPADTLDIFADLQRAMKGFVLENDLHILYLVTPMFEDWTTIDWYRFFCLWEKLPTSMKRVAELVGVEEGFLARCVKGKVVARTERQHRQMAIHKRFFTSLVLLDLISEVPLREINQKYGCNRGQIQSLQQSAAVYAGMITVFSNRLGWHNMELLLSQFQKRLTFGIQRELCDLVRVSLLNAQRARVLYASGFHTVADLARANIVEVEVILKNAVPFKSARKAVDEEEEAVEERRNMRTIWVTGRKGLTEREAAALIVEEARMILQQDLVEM
row,Structure (SMILES),IC50
1,"COc1ccc(C#N)cc1-c1cc(C)ncc1C(=O)Nc1nc2ccc(OCCN3CCOCC3)nc2s1 [Example 65, 4-(5-cyano-2-methoxyphenyl)-6-methyl-N-(5-(2-morpholinoethoxy)thiazolo[5,4-b]pyridin-2-yl)nicotinamide]",0.224 µM
2,"COc1ccccc1-c1cnncc1C(=O)Nc1nc2ccc(Oc3ccc(Cl)cc3F)nc2s1 [Example 155, N-(5-(4-chloro-2-fluorophenoxy)thiazolo[5,4-b]pyridin-2-yl)-5-(2-methoxyphenyl)pyridazine-4-carboxamide]",0.073 µM
3,"Cn1nccc1-c1ccc2nc(NC(=O)c3ccc(C#N)nc3N3CCOCC3)sc2n1 [Example 15, 6-cyano-N-(5-(1-methyl-1H-pyrazol-5-yl)thiazolo[5,4-b]pyridin-2-yl)-2-morpholinonicotinamide]",0.206 µM
4,"COc1ccc(C#N)cc1-c1cc(C)ncc1C(=O)Nc1nc2ccc(-c3ccc(N(C)S(C)(=O)=O)c(C)c3)nc2s1 [Example 89, 4-(5-cyano-2-methoxyphenyl)-6-methyl-N-(5-(3-methyl-4-(N-methylmethylsulfonamido)phenyl)thiazolo[5,4-b]pyridin-2-yl)nicotinamide]",0.023 µM
5,"N#Cc1ccc(C(=O)Nc2nc3ccc(-c4ccc(Cl)cc4)nc3s2)c(N2CCOCC2)n1 [Example 1, N-(5-(4-chlorophenyl)thiazolo[5,4-b]pyridin-2-yl)-6-cyano-2-morpholinonicotinamide]",0.347 µM
6,"COc1cccc(F)c1-c1nc(C#N)ccc1C(=O)Nc1nc2ccc(-c3ccc(Cl)cc3)nc2s1 [Example 10, N-(5-(4-chlorophenyl)thiazolo[5,4-b]pyridin-2-yl)-6-cyano-2-(2-fluoro-6-methoxyphenyl)nicotinamide]",0.149 µM
7,"COc1ccc(C#N)cc1-c1cc(C)ncc1C(=O)Nc1nc2ccc(-c3ccc(N(C)S(C)(=O)=O)cc3)nc2s1 [Example 32, 4-(5-cyano-2-methoxyphenyl)-6-methyl-N-(5-(4-(N-methylmethylsulfonamido)phenyl)thiazolo[5,4-b]pyridin-2-yl)nicotinamide]",0.026 µM
8,"COCc1ccc(OC)c(-c2cc(C)ncc2C(=O)Nc2nc3ccc(-c4ccc(NC(C)=O)cc4)nc3s2)c1 [Example 28, N-(5-(4-acetamidophenyl)thiazolo[5,4-b]pyridin-2-yl)-4-(2-methoxy-5-(methoxymethyl)phenyl)-6-methylnicotinamide]",0.256 µM
9,"Cc1cc(-c2cccc3[nH]ncc23)c(C(=O)Nc2nc3ccc(-c4ccc(C#N)cc4)nc3s2)cn1 [Example 61, N-(5-(4-cyanophenyl)thiazolo[5,4-b]pyridin-2-yl)-4-(1H-indazol-4-yl)-6-methylnicotinamide]",0.121 µM
10,"COc1ccc(C#N)cc1-c1cc(CO)ncc1C(=O)Nc1nc2ccc(-c3ccc(C#N)cc3C)nc2s1 [Example 176, 4-(5-cyano-2-methoxyphenyl)-N-(5-(4-cyano-2-methylphenyl)thiazolo[5,4-b]pyridin-2-yl)-6-(hydroxymethyl)nicotinamide]",0.0091 µM
11,"COCCOc1ccc(-c2ccc3nc(NC(=O)c4cnc(C)cc4-c4cc(C#N)ccc4OC)sc3n2)cc1 [Example 123, 4-(5-cyano-2-methoxyphenyl)-N-(5-(4-(2-methoxyethoxy)phenyl)thiazolo[5,4-b]pyridin-2-yl)-6-methylnicotinamide]",0.027 µM
12,"COc1ccc(C#N)cc1-c1cnccc1C(=O)Nc1nc2ccc(-c3ccc(NC(C)=O)cc3)nc2s1 [Example 22, N-(5-(4-acetamidophenyl)thiazolo[5,4-b]pyridin-2-yl)-3-(5-cyano-2-methoxyphenyl)isonicotinamide]",0.033 µM
13,"COc1ccccc1-c1cc(C(=O)O)ncc1C(=O)Nc1nc2ccc(-c3ccc(NC(C)=O)cc3)nc2s1 [Example 46, 5-((5-(4-acetamidophenyl)thiazolo[5,4-b]pyridin-2-yl)carbamoyl)-4-(2-methoxyphenyl)picolinic acid]",0.129 µM
14,"COc1ccc(C#N)cc1-c1cc(C)ncc1C(=O)Nc1nc2ccc(-c3ccc(CC#N)cc3C)nc2s1 [Example 172, 4-(5-cyano-2-methoxyphenyl)-N-(5-(4-(cyanomethyl)-2-methylphenyl)thiazolo[5,4-b]pyridin-2-yl)-6-methylnicotinamide]",0.01 µM
15,"COc1ccc(C#N)cc1-c1cc(C)ncc1C(=O)Nc1nc2ccc(-c3ccc(C(=O)N4CCC4)c(C)c3)nc2s1 [Example 151, N-(5-(4-(azetidine-1-carbonyl)-3-methylphenyl)thiazolo[5,4-b]pyridin-2-yl)-4-(5-cyano-2-methoxyphenyl)-6-methylnicotinamide]",0.073 µM
16,"COc1ccc(C#N)cc1-c1cc(C)ncc1C(=O)Nc1nc2ccc(-c3ccc(NC(=O)CO)cc3)nc2s1 [Example 42, 4-(5-cyano-2-methoxyphenyl)-N-(5-(4-(2-hydroxyacetamido)phenyl)thiazolo[5,4-b]pyridin-2-yl)-6-methylnicotinamide]",0.065 µM
17,"COc1ccccc1-c1cnncc1C(=O)Nc1nc2ccc(-c3ccc(Cl)c4nn(C)cc34)nc2s1 [Example 126, N-(5-(7-chloro-2-methyl-2H-indazol-4-yl)thiazolo[5,4-b]pyridin-2-yl)-5-(2-methoxyphenyl)pyridazine-4-carboxamide]",0.012 µM
18,"COc1ccc(C#N)cc1-c1cc(C)ncc1C(=O)Nc1nc2ccc(-c3ccc(C#N)c(C)c3)nc2s1 [Example 166, 4-(5-cyano-2-methoxyphenyl)-N-(5-(4-cyano-3-methylphenyl)thiazolo[5,4-b]pyridin-2-yl)-6-methylnicotinamide]",0.013 µM

# Other lines, results leading:
row,IC50,Structure (SMILES)
1,0.031 µM,"COc1ccccc1-c1cnncc1C(=O)Nc1nc2ccc(C#Cc3ccc(Cl)cc3)nc2s1 [Example 63, N-(5-((4-chlorophenyl)ethynyl)thiazolo[5,4-b]pyridin-2-yl)-5-(2-methoxyphenyl)pyridazine-4-carboxamide]"
2,0.0049 µM,"COc1ccccc1-c1cnncc1C(=O)Nc1nc2ccc(-c3ccc(C#N)cc3C)nc2s1 [Example 121, N-(5-(4-cyano-2-methylphenyl)thiazolo[5,4-b]pyridin-2-yl)-5-(2-methoxyphenyl)pyridazine-4-carboxamide]"
3,0.021 µM,"COc1ccccc1-c1cnncc1C(=O)Nc1nc2ccc(Oc3ccc(C#N)cc3)nc2s1 [Example 152, N-(5-(4-cyanophenoxy)thiazolo[5,4-b]pyridin-2-yl)-5-(2-methoxyphenyl)pyridazine-4-carboxamide]"
4,0.063 µM,"COc1ccccc1-c1cnncc1C(=O)Nc1nc2ccc(Oc3ccc(S(C)(=O)=O)cc3)nc2s1 [Example 160, 5-(2-methoxyphenyl)-N-(5-(4-(methylsulfonyl)phenoxy)thiazolo[5,4-b]pyridin-2-yl)pyridazine-4-carboxamide]"
5,0.02 µM,"COc1ccccc1-c1cnncc1C(=O)Nc1nc2ccc(-c3ccc(Cl)cc3)nc2s1 [Example 9, N-(5-(4-chlorophenyl)thiazolo[5,4-b]pyridin-2-yl)-5-(2-methoxyphenyl)pyridazine-4-carboxamide]"
6,0.0095 µM,"COc1ccccc1-c1cnncc1C(=O)Nc1nc2ccc(-c3ccc(NS(C)(=O)=O)cc3)nc2s1 [Example 48, 5-(2-methoxyphenyl)-N-(5-(4-(methylsulfonamido)phenyl)thiazolo[5,4-b]pyridin-2-yl)pyridazine-4-carboxamide]"
7,0.016 µM,"COc1ccccc1-c1cnncc1C(=O)Nc1nc2ccc(-c3ccc(C(=O)N(C)C)cc3)nc2s1 [Example 92, N-(5-(4-(dimethylcarbamoyl)phenyl)thiazolo[5,4-b]pyridin-2-yl)-5-(2-methoxyphenyl)pyridazine-4-carboxamide]"
8,0.022 µM,"COc1ccc(C#N)cc1-c1cnncc1C(=O)Nc1nc2ccc(-c3ccc(NC(C)=O)cc3)nc2s1 [Example 23, N-(5-(4-acetamidophenyl)thiazolo[5,4-b]pyridin-2-yl)-5-(5-cyano-2-methoxyphenyl)pyridazine-4-carboxamide]"
9,0.022 µM,"COc1ccccc1-c1cnncc1C(=O)Nc1nc2ccc(Oc3ccc(Cl)cc3)nc2s1 [Example 98, N-(5-(4-chlorophenoxy)thiazolo[5,4-b]pyridin-2-yl)-5-(2-methoxyphenyl)pyridazine-4-carboxamide]"
10,0.029 µM,"CCNC(=O)c1ccc2nc(NC(=O)c3cnncc3-c3ccccc3OC)sc2n1 [Example 94, N-ethyl-2-(5-(2-methoxyphenyl)pyridazine-4-carboxamido)thiazolo[5,4-b]pyridine-5-carboxamide]"
11,0.012 µM,"COc1ccccc1-c1cnncc1C(=O)Nc1nc2ccc(-c3ccc(Cl)cc3Cl)nc2s1 [Example 117, N-(5-(2,4-dichlorophenyl)thiazolo[5,4-b]pyridin-2-yl)-5-(2-methoxyphenyl)pyridazine-4-carboxamide]"
